target: T1, human recombinant mGluR5 (Homo sapiens, UniProt P41594); assay: positive modulation of mGluR5, calcium based FLIPR assay; assay type: cell-based; details: EC50 of the modulation; HEK 293 cell line expressing human recombinant mGluR5; peak height of Ca fluorescence signal after glutamate at approx. 5% basal stimulation; read-out: EC50
T1 construct: expressed in transfected cells; host or cells: HEK 293 cell line, cultured with tetracycline, hygromycin and geneticin; tetracycline is withdrawn 3-7 days before the assay
Procedure: The positive modulation of mGluR5 is measured in a HEK 293 cell line expressing human recombinant mGluR5 and is detected with calcium based FLIPR assay. The cells are cultured with DMEM supplemented with 10% FCS, 2 μg/mL tetracycline, 100 μg/mL hygromycin and 500 μg/mL gneticin. The cell culture media is exchanged for tetracycline-free cell culture media 3-7 days before the assay. One day before the assay the cell culture medium is exchanged to DMEM without glutamine and phenol red and supplemented with 10% FCS, 100 μg/mL hygromycin and 500 μg/mL geneticin. On the assay day, the medium of the subconfluent cultures is removed and the cells are detached by addition of 2.5 ml EDTA (0.02%) per 175 cm2 culture flask for 1 minute. The cells are resuspend in Ringer solution (140 mM NaCl, 5 mM KCl, 2.5 mM CaCl2, 1.5 mM MgCl2, 5 mM Glucose, 10 mM Hepes; adjusted to pH 7.4 with NaOH), pooled and Ringer solution added to adjust the volume to 50 mL. The cell suspension is centrifuged for 5 min at 1500 U/min (425 g). The supernatant is removed and the cells washed a second time with 50 ml fresh Ringer solution and centrifuged again as before. The supernatant is again removed and the pellet resuspended in Ringer solution to 1,000,000 cells/ml (1×10^6 cells/mL). The cells are plated onto BD BioCoat Poly-D-Lysine 384 well plates (20.000 cells/well; 20 μl/well). The lid covered plates are then incubated until use at 37° C./10% CO2. For dye loading, 20 μl of Calcium-4 assay kit solution (prepared according to the manufacturer's description in Ringer solution) are added to the cells and the plates are incubated for 80 min 37° C. and then 10 min at room temperature. • Controls, Compound dilution and assay execution: • Each assay plate contained wells with “high” and “low” controls:
Low controls 1% DMSO/ringer solution+basal glutamate activation (defined as 100% CTL).
High controls 10 μM CDPPB+basal glutamate activation (defined as 200% CTL).
Test compounds are dissolved and diluted in DMSO to 100-fold the desired concentrations. In a second step, the compounds are diluted in Ringer solution such that the compounds are 4-fold more concentrated than the desired final assay concentration. The final DMSO concentration was 1%.
20 μl of each compound solution are then transferred to the assay plate and the Ca2+ kinetic is measured to determine any intrinsic compound activity. After 5 min incubation in the FLIPR device, the second stimulation with 20 μl of glutamate in Ringer solution (glutamate concentration adjusted to approximately 5% basal stimulation of the maximal possible glutamate effect) is added and the kinetic Ca2+ response of the wells was measured for the modulation effect.
The peak height of the Ca release related fluorescence signal (9-66) is used for the EC50. The EC50 of the modulation is calculated over a nonlinear regression with GraphPad Prism (Table 1).

T1 sequence (P41594 21-1212): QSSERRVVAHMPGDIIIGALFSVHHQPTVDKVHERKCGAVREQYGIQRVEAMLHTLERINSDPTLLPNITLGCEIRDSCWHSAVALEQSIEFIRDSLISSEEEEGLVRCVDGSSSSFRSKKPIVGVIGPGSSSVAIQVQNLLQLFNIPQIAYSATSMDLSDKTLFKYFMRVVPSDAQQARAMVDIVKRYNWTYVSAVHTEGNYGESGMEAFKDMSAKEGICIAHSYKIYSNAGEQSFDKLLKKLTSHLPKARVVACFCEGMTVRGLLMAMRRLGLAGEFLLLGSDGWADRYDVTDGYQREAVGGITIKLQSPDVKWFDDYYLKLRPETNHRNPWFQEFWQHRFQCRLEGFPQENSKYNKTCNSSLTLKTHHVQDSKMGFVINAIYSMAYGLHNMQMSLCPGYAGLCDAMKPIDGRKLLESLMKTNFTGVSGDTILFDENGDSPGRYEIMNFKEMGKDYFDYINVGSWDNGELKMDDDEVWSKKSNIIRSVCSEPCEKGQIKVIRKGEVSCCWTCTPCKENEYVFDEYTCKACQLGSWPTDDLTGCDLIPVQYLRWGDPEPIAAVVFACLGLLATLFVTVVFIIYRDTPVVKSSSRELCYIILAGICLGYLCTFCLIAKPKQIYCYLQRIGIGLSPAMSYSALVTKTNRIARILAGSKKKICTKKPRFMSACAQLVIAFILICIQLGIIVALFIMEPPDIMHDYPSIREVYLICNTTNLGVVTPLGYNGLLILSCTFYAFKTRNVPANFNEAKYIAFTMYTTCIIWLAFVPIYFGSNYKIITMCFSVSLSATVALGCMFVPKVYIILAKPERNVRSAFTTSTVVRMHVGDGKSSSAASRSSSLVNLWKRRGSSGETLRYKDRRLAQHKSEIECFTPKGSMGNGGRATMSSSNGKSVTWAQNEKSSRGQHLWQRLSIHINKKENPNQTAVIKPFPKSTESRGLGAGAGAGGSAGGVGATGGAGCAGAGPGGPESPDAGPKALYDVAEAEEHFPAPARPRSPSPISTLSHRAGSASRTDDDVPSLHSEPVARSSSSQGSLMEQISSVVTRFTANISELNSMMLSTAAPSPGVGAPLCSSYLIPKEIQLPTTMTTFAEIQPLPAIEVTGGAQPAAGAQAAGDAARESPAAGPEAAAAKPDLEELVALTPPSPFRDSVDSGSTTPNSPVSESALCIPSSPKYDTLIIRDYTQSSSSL

EC50 [nM] | SMILES
141 | Nc1nc2c(s1)CCN(C(=O)Cn1nc(-c3ccc(F)cc3)nc1-c1ccc(F)cc1)CC2 [Example 7.03.013.]
626 | CC1CN(c2ccccn2)CCN1C(=O)Cn1nc(-c2ccc(F)cc2)nc1-c1ccc(F)cc1 (stereo not shown) [Example 7.03.014.]
305 | N#Cc1cccc(N2CCN(C(=O)Cn3nc(-c4ccc(F)cc4)nc3-c3ccc(F)cc3)CC2=O)c1 [Example 7.03.015.]
101 | O=C(Cn1nc(-c2ccc(F)cc2)nc1-c1ccc(F)cc1)N1CCN(c2cc(F)ccn2)C(=O)C1 [Example 7.03.016.]
439 | Nc1nc2c(o1)CCN(C(=O)Cn1nc(-c3ccc(F)cc3)nc1-c1ccc(F)cc1)CC2 [Example 7.03.019.]
626 | O=C(Cn1nc(-c2ccc(F)cc2)nc1-c1ccc(F)cc1)N1Cc2cccnc2C1 [Example 7.03.020.]
228 | COc1cccc(C2=CCN(C(=O)Cn3nc(-c4ccc(F)cc4)nc3-c3ccc(F)cc3)CC2)c1 [Example 7.03.021.]
56 | O=C(Cn1nc(-c2ccc(F)cc2)nc1-c1ccc(F)cc1)N1CC=C(c2ncccn2)CC1 [Example 7.03.022.]
186 | COc1ccc2c(n1)CCN(C(=O)Cn1nc(-c3ccc(F)cc3)nc1-c1ccc(F)cc1)CC2 [Example 7.03.023.]
107 | O=C(Cn1nc(-c2ccc(F)cc2)nc1-c1ccc(F)cc1)N1CC=C(c2ccccn2)CC1 [Example 7.03.024.]
97 | COc1cc(C2=CCN(C(=O)Cn3nc(-c4ccc(F)cc4)nc3-c3ccc(F)cc3)CC2)ncn1 [Example 7.03.025.]
987 | COc1cc(C2CCN(C(=O)Cn3nc(-c4ccc(F)cc4)nc3-c3ccc(F)cc3)CC2)ncn1 [Example 7.03.026.]
739 | O=C(Cn1nc(-c2ccc(F)cc2)nc1-c1ccc(F)cc1)N1CCC(c2ccccn2)CC1 [Example 7.03.027.]
117 | O=C(Cn1nc(-c2ccc(F)cc2)nc1-c1ccc(F)cc1)N1CCc2ccc(Cl)nc2CC1 [Example 7.03.028.]
37 | CCc1nc2c(s1)CCN(C(=O)Cn1nc(-c3ccc(F)cc3)nc1-c1ccc(F)cc1)CC2 [Example 7.03.030.]
1780 | O=C(Cn1nc(-c2ccc(F)cc2)nc1-c1ccc(F)cc1)N1CCc2nc(C3CCOCC3)sc2CC1 [Example 7.03.031.]
868 | O=C(Cn1nc(-c2ccc(F)cc2)nc1-c1ccc(F)cc1)N1CCc2nc(C3CCCCC3)sc2CC1 [Example 7.03.032.]
474 | CC(C)c1nnc(C2CCN(C(=O)Cn3nc(-c4ccc(F)cc4)nc3-c3ccc(F)cc3)CC2)o1 [Example 7.03.033.]
907 | O=C(Cn1nc(-c2ccc(F)cc2)nc1-c1ccc(F)cc1)N1CCC(c2nnco2)CC1 [Example 7.03.034.]
170 | Cc1cnc(C2CCN(C(=O)Cn3nc(-c4ccc(F)cc4)nc3-c3ccc(F)cc3)CC2)o1 [Example 7.03.035.]
49 | Cc1cnc(C2=CCN(C(=O)Cn3nc(-c4ccc(F)cc4)nc3-c3ccc(F)cc3)CC2)o1 [Example 7.03.036.]
312 | Cc1nc2c(s1)C(C)CN(C(=O)Cn1nc(-c3ccc(F)cc3)nc1-c1ccc(F)cc1)CC2 (stereo not shown) [Example 7.03.037.]
75 | O=C(Cn1nc(-c2ccc(F)cc2)nc1-c1ccc(F)cc1)N1CCC(c2ncco2)CC1 [Example 7.03.038.]
50 | COc1nc2c(s1)CCN(C(=O)Cn1nc(-c3ccc(F)cc3)nc1-c1ccc(F)cc1)CC2 [Example 7.03.039.]
54 | O=C(Cn1nc(-c2ccc(F)cc2)nc1-c1ccc(F)cc1)N1CC=C(c2ncco2)CC1 [Example 7.03.040.]
161 | COc1cccc(N2CCN(C(=O)Cn3nc(-c4ccc(F)cc4)nc3-c3ccc(F)cc3)CC2=O)n1 [Example 7.03.041.]
885 | O=C(Cn1nc(-c2ccc(F)cc2)nc1-c1ccc(F)cc1)N1CCN(C2=NCCO2)CC1 [Example 7.03.042.]
139 | CC(C)c1nnc(N2CCN(C(=O)Cn3nc(-c4ccc(F)cc4)nc3-c3ccc(F)cc3)CC2)o1 [Example 7.03.043.]

Reference: US8642774B2, “Compounds” (Boehringer Ingelheim International GmbH, priority 2011, dated 2014)
